Laboratory results as given in patent US9371336B2, “Compounds for treating spinal muscular atrophy” (PTC Therapeutics Inc., priority 2012, dated 2016).

Tests used:
Smn protein = Smn protein assay (HTRF) in cultured cells (SMA patient fibroblasts GM03813); assay type: cell-based, human; conditions: 48 hours; for EC1.5x for Smn protein expression: SMA patient fibroblast cells (GM03813), HTRF, 7-point concentration data, concentration producing 1.5 times Smn protein vs DMSO vehicle control; for maximum fold (Fold) increase of Smn protein: SMA patient fibroblast cells, 7-point concentration curve, relative to vehicle control
Method in brief: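 SMA patient fibroblasts (GM03813) were treated 48 h at 37° C with a 7-point, 3.16-fold compound series in triplicate, then lysed in RIPA. Smn was read by HTRF (anti-SMN d2/kryptate, 665/620 nm ratio). ΔF versus blank was divided by vehicle ΔF to give fold Smn increase.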

[1] = test system: SMN2 minigene mRNA (SMN2-A minigene construct); test: SMN2 minigene mRNA splicing RT-qPCR assay in cultured cells; assay type: cell-based, human; conditions: Homo sapiens, HEK293-H; HEK293H cells stably transfected with SMN2-A minigene, 24 hours, 7-point concentration data; concentration giving 1.5-fold SMN2 full length mRNA relative to vehicle-treated cells; read-out: EC1.5x for production of full length SMN2 mRNA
Method in brief: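 Full-length SMN2 minigene mRNA, measured by exon 7/luciferase-specific RT-qPCR that excludes endogenous SMN1/SMN2, was normalized to GAPDH and expressed relative to vehicle-treated cells via modified ΔΔCt. Stably transfected HEK293H cells received compound (7-point, 3.16-fold series, duplicates) for 24 h at 37 °C.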

With CN1CCN(c2ccc3cc(-c4cn5cccc(F)c5n4)c(=O)oc3n2)CC1 [Cpd 110, 3-(8-fluoroimidazo[1,2-a]pyridin-2-yl)-7-(4-methylpiperazin-1-yl)-2H-pyrano[2,3-b]pyridin-2-one] the “EC1.5x for Smn protein expression” value (Smn protein) was “**** (an EC1.5×≦0.3 μM is indicated by four stars (****))”, the “maximum fold (Fold) increase of Smn protein” value (from here on “maximum fold (Fold) increase”) (Smn protein) was “**** (a fold increase between >1.5 and ≦1.65 is indicated by four stars (****))” and the melting point was 258 to 262 °C. The EC (1.5-fold) [1] was ≤ 0.1 µM.
With CN1CCN(c2ccc3cc(-c4cn5cccc(Cl)c5n4)c(=O)oc3n2)CC1 [Cpd 111, 3-(8-chloroimidazo[1,2-a]pyridin-2-yl)-7-(4-methylpiperazin-1-yl)-2H-pyrano[2,3-b]pyridin-2-one] the “EC1.5x for Smn protein expression” value (Smn protein) was “**** (an EC1.5×≦0.3 μM is indicated by four stars (****))”, the “maximum fold (Fold) increase” value (Smn protein) was “*** (a fold increase between >1.35 and ≦1.5 is indicated by three stars (***))” and the melting point was 256 to 259 °C. The EC (1.5-fold) [1] was ≤ 0.1 µM.
With Cc1cc(F)c2nc(-c3cc4ccc(N5CCCN(C)CC5)nc4oc3=O)cn2c1 [Cpd 113, 3-(8-fluoro-6-methylimidazo[1,2-a]pyridin-2-yl)-7-(4-methyl-1,4-diazepan-1-yl)-2H-pyrano[2,3-b]pyridin-2-one] the “EC1.5x for Smn protein expression” value (Smn protein) was “*** (an EC1.5× between >0.3 μM and ≦1 μM is indicated by three stars (***))”, the “maximum fold (Fold) increase” value (Smn protein) was “**** (a fold increase between >1.5 and ≦1.65 is indicated by four stars (****))” and the melting point was 269 to 273 °C. The EC (1.5-fold) [1] was ≤ 0.1 µM.
In the case of CN1CCCN(c2ccc3cc(-c4cn5ccsc5n4)c(=O)oc3n2)CC1 [Cpd 114, 3-(imidazo[2,1-b][1,3]thiazol-6-yl)-7-(4-methyl-1,4-diazepan-1-yl)-2H-pyrano[2,3-b]pyridin-2-one], the “EC1.5x for Smn protein expression” value (Smn protein) is reported as “*** (an EC1.5× between >0.3 μM and ≦1 μM is indicated by three stars (***))”, the “maximum fold (Fold) increase” value (Smn protein) is reported as “**** (a fold increase between >1.5 and ≦1.65 is indicated by four stars (****))” and the melting point is reported as 224 to 226 °C. For the same compound, the EC (1.5-fold) [1] was ≤ 0.1 µM.
With Cc1ccn2cc(-c3cc4ccc(N5CCCN(C)CC5)nc4oc3=O)nc2c1 [Cpd 115, 7-(4-methyl-1,4-diazepan-1-yl)-3-(7-methylimidazo[1,2-a]pyridin-2-yl)-2H-pyrano[2,3-b]pyridin-2-one] the “maximum fold (Fold) increase” value (Smn protein) was “*** (a fold increase between >1.35 and ≦1.5 is indicated by three stars (***))”, the melting point was 241 to 243 °C and the EC (1.5-fold) [1] was ≤ 0.1 µM.
For Cc1ccc2nc(-c3cc4ccc(N5CCCN(C)CC5)nc4oc3=O)cn2c1 [Cpd 116, 7-(4-methyl-1,4-diazepan-1-yl)-3-(6-methylimidazo[1,2-a]pyridin-2-yl)-2H-pyrano[2,3-b]pyridin-2-one], the “EC1.5x for Smn protein expression” value (Smn protein) was “*** (an EC1.5× between >0.3 μM and ≦1 μM is indicated by three stars (***))”, the “maximum fold (Fold) increase” value (Smn protein) was “*** (a fold increase between >1.35 and ≦1.5 is indicated by three stars (***))” and the melting point was 233 to 236 °C. For the same compound, the EC (1.5-fold) [1] was ≤ 0.1 µM.
With CN1CCN(c2ccc3cc(-c4cn5cccnc5n4)c(=O)oc3n2)CC1 [Cpd 117, 3-(imidazo[1,2-a]pyrimidin-2-yl)-7-(4-methylpiperazin-1-yl)-2H-pyrano[2,3-b]pyridin-2-one] the “EC1.5x for Smn protein expression” value (Smn protein) was “*** (an EC1.5× between >0.3 μM and ≦1 μM is indicated by three stars (***))”, the “maximum fold (Fold) increase” value (Smn protein) was “**** (a fold increase between >1.5 and ≦1.65 is indicated by four stars (****))” and the melting point was 266 to 269 °C. For the same compound, the EC (1.5-fold) [1] was 0.1 to 0.3 µM.
In the case of C[C@@H]1CN(c2ccc3cc(-c4cn5cccnc5n4)c(=O)oc3n2)C[C@H](C)N1C [Cpd 118, 3-(imidazo[1,2-a]pyrimidin-2-yl)-7-[(3R,5S)-3,4,5-trimethylpiperazin-1-yl]-2H-pyrano[2,3-b]pyridin-2-one], the “EC1.5x for Smn protein expression” value (Smn protein) is reported as “** (an EC1.5× between >1 and ≦3 μM is indicated by two stars (**))”, the “maximum fold (Fold) increase” value (Smn protein) is reported as “*** (a fold increase between >1.35 and ≦1.5 is indicated by three stars (***))” and the melting point is reported as 286 to 289 °C. The EC (1.5-fold) [1] was 0.1 to 0.3 µM.
For C[C@@H]1CN(c2ccc3cc(-c4cn5cccc(F)c5n4)c(=O)oc3n2)C[C@H](C)N1C [Cpd 119, 3-(8-fluoroimidazo[1,2-a]pyridin-2-yl)-7-[(3R,5 S)-3,4,5-trimethylpiperazin-1-yl]-2H-pyrano[2,3-b]pyridin-2-one], the “EC1.5x for Smn protein expression” value (Smn protein) was “**** (an EC1.5×≦0.3 μM is indicated by four stars (****))”, the “maximum fold (Fold) increase” value (Smn protein) was “**** (a fold increase between >1.5 and ≦1.65 is indicated by four stars (****))” and the melting point was 242 to 245 °C. The EC (1.5-fold) [1] was ≤ 0.1 µM.
With C[C@@H]1CN(c2ccc3cc(-c4cn5cccc(Cl)c5n4)c(=O)oc3n2)C[C@H](C)N1C [Cpd 120, 3-(8-chloroimidazo[1,2-a]pyridin-2-yl)-7-[(3R,5S)-3,4,5-trimethylpiperazin-1-yl]-2H-pyrano[2,3-b]pyridin-2-one] the “maximum fold (Fold) increase” value (Smn protein) was “*** (a fold increase between >1.35 and ≦1.5 is indicated by three stars (***))”, the melting point was 241 to 245 °C and the EC (1.5-fold) [1] was ≤ 0.1 µM.
For C[C@@H]1CN(c2ccc3cc(-c4cn5ccccc5n4)c(=O)oc3n2)C[C@H](C)N1C [Cpd 121, 3-(imidazo[1,2-a]pyridin-2-yl)-7-[(3R,5S)-3,4,5-trimethylpiperazin-1-yl]-2H-pyrano[2,3-b]pyridin-2-one], the “EC1.5x for Smn protein expression” value (Smn protein) was “* (An EC1.5× for Smn protein expression between >3 μM and ≦10 μM is indicated by one star (*))”, the “maximum fold (Fold) increase” value (Smn protein) was “*** (a fold increase between >1.35 and ≦1.5 is indicated by three stars (***))” and the melting point was 242 to 246 °C. The EC (1.5-fold) [1] was ≤ 0.1 µM.
In the case of Cc1cc(F)c2nc(-c3cc4ccc(N5C[C@H](C)NC[C@H]5C)nc4oc3=O)cn2c1 [Cpd 122, 7-[(2R,5S)-2,5-dimethylpiperazin-1-yl]-3-(8-fluoro-6-methylimidazo[1,2-a]pyridin-2-yl)-2H-pyrano[2,3-b]pyridin-2-one], the “EC1.5x for Smn protein expression” value (Smn protein) is reported as “**** (an EC1.5×≦0.3 μM is indicated by four stars (****))”, the “maximum fold (Fold) increase” value (Smn protein) is reported as “**** (a fold increase between >1.5 and ≦1.65 is indicated by four stars (****))” and the melting point is reported as 195 to 198 °C. For the same compound, the EC (1.5-fold) [1] was ≤ 0.1 µM.
In the case of Cc1cn2cc(-c3cc4ccc(N5C[C@H](C)N(C)C[C@H]5C)nc4oc3=O)nc2c(C)n1 [Cpd 123, 3-(6,8-dimethylimidazo[1,2-a]pyrazin-2-yl)-7-[(2R,5S)-2,4,5-trimethylpiperazin-1-yl]-2H-pyran[2,3-b]pyridin-2-one], the “EC1.5x for Smn protein expression” value (Smn protein) is reported as “*** (an EC1.5× between >0.3 μM and ≦1 μM is indicated by three stars (***))”, the “maximum fold (Fold) increase” value (Smn protein) is reported as “**** (a fold increase between >1.5 and ≦1.65 is indicated by four stars (****))” and the melting point is reported as 234 to 236 °C. The EC (1.5-fold) [1] was 0.1 to 0.3 µM.
For Cc1ccc2nc(-c3cc4ccc(N5C[C@@H]6C[C@H]5CN6C)nc4oc3=O)cn2c1 [Cpd 125, 7-[(1S,4S)-5-methyl-2,5-diazabicyclo[2.2.1]hept-2-yl]-3-(6-methylimidazo[1,2-a]pyridin-2-yl)-2H-pyrano[2,3-b]pyridin-2-one], the “EC1.5x for Smn protein expression” value (Smn protein) was “**** (an EC1.5×≦0.3 μM is indicated by four stars (****))”, the “maximum fold (Fold) increase” value (Smn protein) was “***** (a fold increase >1.65 is indicated by five stars (*****))” and the melting point was 211 to 213 °C. It also gave an EC (1.5-fold) [1] of 0.1 to 0.3 µM.
